This data set can be described thus: Human HepG2 cell viability assay in 384 well format. The conditions noted are these: HepG2 cells, read-out: Inhibition. The arrangement: dose 125 nL, time 70.5 hour; concentration not given beside the values. The data set is classed as toxicity, cell-based.
Regarding `Cc1cc(C)n(C2CCCN(C(=O)CCNc3ncccn3)C2)n1` (stereo not drawn), the cytotoxicity at 70.5 h is -2.87%.
Take `CCNC(c1ccc(C(C)C)cc1)c1cccnc1` (stereo not drawn): the cytotoxicity at 70.5 h came out at 2.26%.
The value for `Cc1ccc(N2CCCC(NCC(=O)Nc3cc(C)nn3C)C2)nn1` (stereo not drawn) was -4.79%; that for `CCNC(c1ccc(Br)cc1)c1cccnc1` (stereo not drawn) was 1.53%.
Consider `CCNC(c1ccc(C)cc1)c1cccnc1` (stereo not drawn), for which the cytotoxicity at 70.5 h was 0.38%.
As to `Cc1cc(C)n(C2CCCN(C(=O)CCCc3ccccn3)C2)n1` (stereo not drawn), the cytotoxicity at 70.5 h was -0.29%.
For the compound `Cc1noc(CN2CCCC(Cn3nc(C)nc3C)C2)n1` (stereo not drawn), the cytotoxicity at 70.5 h was -6.06%.
As to `Cc1ccc(NC2CCN(C(=O)Cc3ccc(C)s3)CC2)nn1`, the cytotoxicity at 70.5 h is -7.07%.
The value for `CCc1ncc(C(=O)N2CCCC2Cn2cccn2)s1` (stereo not drawn) was 12.3%.
`CCc1noc(CN2CCCC(Cn3nc(C)nc3C)C2)n1` (stereo not drawn): the cytotoxicity at 70.5 h was -12.1%.
The value for `Cc1nc(C)n(CC2CCCN(Cc3noc(C)n3)C2)n1` (stereo not drawn) was -5.88%; that for `COc1ncccc1CNCc1c(C)nn(C)c1N(C)C` was 19.7%; that for `Cc1ccc(O)c(C(=O)N2CCCC(NC(=O)C(C)C)C2)c1` (stereo not drawn) was -6.92%.
The value for `O=C(NCCc1cccs1)NCC(O)c1cccc(F)c1` (stereo not drawn) was -7.4%; that for `Cc1ccc(-c2n[nH]cc2CNCC2CCN(CC(C)O)CC2)cc1` (stereo not drawn) was -1.53%; that for `COc1ccc(CCNC(=O)NCC(O)c2cccc(F)c2)cc1` (stereo not drawn) was 8.74%.
Then `O=C(c1cnc(C2CC2)s1)N1CCCC1Cn1cccn1` (stereo not drawn), with -4.89%; and `CCOc1cccc2c1OCC(C(=O)NS(=O)(=O)c1c(C)noc1C)=C2`, with -2.53%; and `Cc1cnn(CC2CCCN2C(=O)c2cnc(-c3ccco3)s2)c1` (stereo not drawn), with -9.06%.
`CCN(c1cc(C)cc(C)c1)S(=O)(=O)c1cc(C(=O)O)cs1`: the cytotoxicity at 70.5 h is -7.47%.
Then `Cc1cnn(C2CCCN(C(=O)c3cn4ccccc4n3)C2)c1` (stereo not drawn), with 17.4%; and `COC(=O)c1cccc(C(=O)NCc2ccc3c(c2)CCCN3C)c1`, with -3.61%; and `Cc1ccc(N(C)S(=O)(=O)c2cc(C(=O)O)cs2)c(C)c1`, with 0.683%.
For the compound `CCn1cnnc1CNC(=O)N(C)Cc1cccc(OC(F)F)c1`, the cytotoxicity at 70.5 h was -0.632%.
The value for `CC(C)c1cnc(CN(C)C2CCN(CCn3cc(C#N)cn3)C2)o1` (stereo not drawn) was -2.83%; that for `Cc1nccn1CCCC(=O)N1CCCN(c2cccnn2)CC1` was -2.35%; that for `CN(C)c1ncccc1C(=O)N1CCCC1Cn1cccn1` (stereo not drawn) was -5.68%.
The value for `O=C(c1cnn(-c2ccccc2Cl)c1)N1CCN(CCO)CC1` was -5.36%; that for `Cc1nn(C)c(Cl)c1C1CCCN1C(=O)c1ccnn1C` (stereo not drawn) was -14.4%.
The value for `COc1ccc(CNC(=O)NCCc2csc(C)n2)cn1` was 10.9%; that for `CN(CCc1ccccc1)Cc1nc2c(cnn2C)c(=O)[nH]1` was -10.9%.
As for `Cc1ncc(C(=O)N2CCCC(n3cccn3)C2)s1` (stereo not drawn), the cytotoxicity at 70.5 h was -11.8%.
The value for `O=C(c1cnc(-c2ncccn2)s1)N1CCCC(n2cccn2)C1` (stereo not drawn) was -10.1%; that for `Cc1nc(C)n(CC2CCCN2c2ncnc3ccsc23)n1` (stereo not drawn) was -5.53%.
`Cc1cnn(CC2CCCN2C(=O)c2ccccc2-n2cccn2)c1` (stereo not drawn): the cytotoxicity at 70.5 h was -12.6%.
The value for `COc1c(C2CCCN2C(=O)c2nccnc2N)c(C)nn1C` (stereo not drawn) was -13%; that for `Cc1ncncc1C(=O)N1CCCC1c1c(C)nn(C)c1Cl` (stereo not drawn) was -10.6%; that for `Cc1nn(C)c(Cl)c1C1CCCN1C(=O)c1cnccn1` (stereo not drawn) was -7.92%.
Take `O=C(CCCc1ccccn1)N1CCCC1c1noc(C2CC2)n1` (stereo not drawn): the cytotoxicity at 70.5 h was -9.72%.
Then `CN(Cc1nnc2n1CCC2)C(=O)c1ccc2c(c1)OCCO2`, with 44.2%; and `Cc1csc(N2CCCN(C(=O)Cc3ccc(C)s3)CC2)n1`, with 16.1%; and `CCOc1ccc(NC(=O)N(C)Cc2cnn(C)c2)c(C)c1`, with -5.21%.
On to `CC(C)c1ccc(OCC(=O)N2CCOCC2c2ncon2)cc1` (stereo not drawn), for which the cytotoxicity at 70.5 h is -8.54%.
On to `Cc1csc(N2CCCN(C(=O)Cc3cccs3)CC2)n1`, for which the cytotoxicity at 70.5 h was -5.57%.
On to `CC(C)n1nc2c(cc1=O)CN(CCCN1CCCC1=O)CC2`, for which the cytotoxicity at 70.5 h is -9.82%.
In the case of `CC(C(=O)NCc1ccc(N2CCCC2)nc1)S(C)(=O)=O` (stereo not drawn), the cytotoxicity at 70.5 h came out at 15.7%.
The value for `CC(C(=O)NCc1ccc(N2CCCCC2)nc1)S(C)(=O)=O` (stereo not drawn) was -5.42%.
As to `Cc1csc(N2CCN(C(=O)NCCNc3ncccn3)CC2)n1`, the cytotoxicity at 70.5 h was -5.98%.
The value for `O=C(NCCNc1ncccn1)C1CC(=O)N(Cc2ccccc2)C1` (stereo not drawn) was -8.64%; that for `COc1ccc(NC(=O)NCCCn2nc3ccccn3c2=O)cc1` was -3.39%.
The value for `O=C(NCCCn1nc2ccccn2c1=O)Nc1ccccc1Cl` was 0.153%.
As to `O=C(NCc1cc[nH]n1)NCC(O)COc1cccc(F)c1` (stereo not drawn), the cytotoxicity at 70.5 h was determined as 22.7%.
For `Cc1nc(CNC(=O)NCC(O)c2ccc(F)cc2F)cs1` (stereo not drawn), the cytotoxicity at 70.5 h is -12%.
Then `Cc1noc(C)c1CC(=O)OCC(=O)N1CCc2sccc2C1`, with 7.95%.
For the compound `O=C(CCN1CCCN(c2nccs2)CC1)Nc1ccccc1`, the cytotoxicity at 70.5 h was found to be 28.8%.
Turning to `CN(CCNC(=O)c1scnc1Cl)c1ccccc1`, the cytotoxicity at 70.5 h is 2.36%.
Turning to `Cc1csc(N2CCCN(C(=O)c3c(C)oc(C)c3C)CC2)n1`, the cytotoxicity at 70.5 h was -1.91%.
On to `Cc1ccc(CNC(=O)N2CCN(Cc3ccsc3)CC2)n1C`, for which the cytotoxicity at 70.5 h is 30.9%.
With `CCc1[nH]ncc1C(=O)N1CCCC(n2cccn2)C1` (stereo not drawn), the cytotoxicity at 70.5 h was found to be 3.94%.
For the compound `Cc1ccc(N2CCCN(C(=O)c3c(C)oc(C)c3C)CC2)nn1`, the cytotoxicity at 70.5 h was -4.32%.
Then `NC(=O)CN1CCCN(C(=O)Cc2ccc3ccccc3c2)CC1`, with 33.3%; and `Cc1ccc(NC2CCN(C(=O)c3n[nH]c4ccccc34)CC2)nn1`, with 1.27%; and `Cc1ccc(NC2CCN(C(=O)c3cnc(C)s3)CC2)nn1`, with -6.52%.
`c1ccc2cc(OCCN3CCn4c(nnc4C4CC4)C3)ccc2c1`: the cytotoxicity at 70.5 h is 31%.
The value for `O=C(CCN1CCCN(c2nccs2)CC1)NCC1CCCCC1` was -8.1%.
Regarding `Cc1ccc(-c2nc(CN3CCn4c(nnc4C4CC4)C3)co2)cc1`, the cytotoxicity at 70.5 h is -5.93%.
The value for `Cc1ccc(C(=O)N2CCN(Cc3ccsc3)CC2)n1C` was -7.84%; that for `Cc1cnc(CN(C)C2CCN(CCc3cnn(C)c3)C2)o1` (stereo not drawn) was -0.678%.
Then `Cc1csc(N2CCCN(C(=O)c3cnns3)CC2)n1`, with 31.6%.
The value for `CCCn1[nH]cc/c1=N\C(=O)CN1CCc2cnc(CC)nc2C1` was 2.85%.
In the case of `CC1CCN(C(=O)c2cccc3ncccc23)CC1`, the cytotoxicity at 70.5 h was 4.77%.
`Cc1nc(C2CCCN2Cc2ncc(C(C)C)o2)no1` (stereo not drawn): the cytotoxicity at 70.5 h is 42.3%.
Turning to `N#Cc1ccccc1OCCN1CCn2c(nnc2C2CC2)C1`, the cytotoxicity at 70.5 h was found to be 5.39%.
Then `CCn1ccnc1CN1CCC(N(C)Cc2ncc(C)o2)C1` (stereo not drawn), with 20.1%.
Then `Cc1cnn(CC2CCCCN2CCn2cncn2)c1` (stereo not drawn), with 1.52%; and `O=C(Cn1cccnc1=O)NCCc1ccc2c(c1)OCCO2`, with 5.28%; and `NC(=O)CC1CCN(C(=O)NCc2ccccc2-n2cccn2)CC1`, with -1.19%.
Turning to `OC(COc1ccccc1)CN1CCc2c(ncn2C2CC2)C1` (stereo not drawn), the cytotoxicity at 70.5 h was -6.53%.
Then `Cc1nc(CN2CCN(Cc3nccn3C)CC2)no1`, with 3.86%.
Regarding `CCC(=O)N(C)CC(=O)Nc1ccc(Br)cn1`, the cytotoxicity at 70.5 h came out at 2.06%.
The value for `Cc1cnn(CC2CN(CC(=O)N(C)Cc3cccs3)CCO2)c1` (stereo not drawn) was -1.56%; that for `Cc1cc(C)n(CC2CCCCN2C(=O)c2ccc3nncn3c2)n1` (stereo not drawn) was -2.04%; that for `CCc1nc(C2CCCN2C(=O)c2c[nH]c(C)n2)no1` (stereo not drawn) was 27.8%.
Then `CCc1nc(C2CCCN2C(=O)c2cc(C3CC3)[nH]n2)no1` (stereo not drawn), with -1.42%; and `O=C(NCc1ccccc1-n1cccn1)N1CCN2CCCCC2C1` (stereo not drawn), with 1.19%; and `Cc1nn(C)cc1CCC(=O)N1CCCC(n2cncn2)C1` (stereo not drawn), with 6.4%.
Then `Cc1nc(C)n(CC2CCCN2Cc2cn(-c3ccccc3)nn2)n1` (stereo not drawn), with 2.44%.
Consider `O=C(Cc1csc(-c2nnc[nH]2)n1)N1CCCC1Cn1cccn1` (stereo not drawn), for which the cytotoxicity at 70.5 h was -8.18%.
Then `CN(C)CC1CN(Cc2nnc(-c3ccccc3Cl)o2)CCO1` (stereo not drawn), with 3.65%; and `CN(C)CC1CN(Cc2coc(-c3ccccc3Cl)n2)CCO1` (stereo not drawn), with 7.1%; and `CCN(CC)C1CCN(C(=O)NCc2nncn2CC)CC1`, with -0.0969%.
Then `CC(NC(=O)N1CCN(c2ccccc2)CC1)c1nncn1C` (stereo not drawn), with -15.6%; and `Cn1ncc(NCc2cc(F)cc(F)c2)c(Cl)c1=O`, with -7.18%.
On to `CC1CN(c2ccc(CNC(=O)c3ccn(C)c(=O)c3)cn2)CCO1` (stereo not drawn), for which the cytotoxicity at 70.5 h was -8.78%.
For `Cc1cc(NC(=O)N(CC2CCOC2)C2CC2)no1` (stereo not drawn), the cytotoxicity at 70.5 h was -11.9%.
Regarding `Cc1noc(C2CCN(Cc3cc(=O)n(C)c(=O)n3C)CC2)n1`, the cytotoxicity at 70.5 h is -13.2%.
Then `Cn1cnnc1C1CCCN(C(=O)c2cc(Cl)c3c(c2)OCO3)C1` (stereo not drawn), with -11.6%; and `CCCn1[nH]cc/c1=N\C(=O)CN1CCOC(Cn2cc(C)cn2)C1` (stereo not drawn), with -14.6%; and `Cn1ncc(NCc2cccc(COC(C)(C)C)c2)c(Cl)c1=O`, with 7.28%.
The value for `CC(CC#N)NC(=O)c1cc(Br)c2c(c1)OCCO2` (stereo not drawn) was 0.544%; that for `Cn1cnc2c1CCN(CCCc1ccccc1)C2` was -1.08%; that for `Cn1ccc(C(=O)NCc2ccc(N3CCCC3)nc2)cc1=O` was -5.51%.
Regarding `Cc1nn(C)c(N(C)C)c1CNCc1ccc(OCC(N)=O)cc1`, the cytotoxicity at 70.5 h was determined as 0.111%.

Source of the values: ChEMBL document CHEMBL3507680, “University of Dundee, Gates Library screen for HepG2 cell viability”.
